Legend:
HCT-15 [1] = assay: inhibition of the growth of colon cancer(HCT-15) cell line; assay type: functional; details: Homo sapiens
SK-MEL-5 [2] = assay: inhibition of the growth of melanoma cancer (SK-MEL-5) cell line; assay type: functional; details: Homo sapiens
MDA-MB-435 [3] = assay: inhibition of the growth of breast cancer (MDA-MB-435) cell line; assay type: functional; details: Homo sapiens
NCI-H23 [4] = assay: inhibition of the growth of non-small-cell lung cancer (NCI-H23) cell line; assay type: functional; details: Homo sapiens
[5] = molecular target: T1, Bifunctional dihydrofolate reductase-thymidylate synthase (Toxoplasma gondii, UniProt Q07422)
T1 sequence (Q07422 whole entry): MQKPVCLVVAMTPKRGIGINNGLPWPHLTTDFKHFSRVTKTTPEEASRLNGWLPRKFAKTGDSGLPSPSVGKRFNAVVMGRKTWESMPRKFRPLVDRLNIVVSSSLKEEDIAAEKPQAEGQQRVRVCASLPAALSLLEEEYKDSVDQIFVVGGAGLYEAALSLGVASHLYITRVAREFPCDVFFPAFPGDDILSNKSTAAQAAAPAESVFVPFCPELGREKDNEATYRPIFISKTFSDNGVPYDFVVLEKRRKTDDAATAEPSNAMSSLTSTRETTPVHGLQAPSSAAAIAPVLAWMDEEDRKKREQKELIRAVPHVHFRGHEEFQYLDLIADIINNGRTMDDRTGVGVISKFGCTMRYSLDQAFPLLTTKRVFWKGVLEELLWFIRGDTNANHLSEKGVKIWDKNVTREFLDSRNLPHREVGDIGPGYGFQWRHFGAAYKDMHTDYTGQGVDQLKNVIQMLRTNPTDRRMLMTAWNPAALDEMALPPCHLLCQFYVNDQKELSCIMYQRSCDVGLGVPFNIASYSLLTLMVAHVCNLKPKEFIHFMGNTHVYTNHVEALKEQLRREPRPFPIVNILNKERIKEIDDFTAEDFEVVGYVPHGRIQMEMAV
Description: Inhibitory activity against dihydrofolate reductase (DHFR) from Toxoplasma gondii

KM12 = assay: inhibition of the growth of colon cancer(KM-12) cell line; assay type: functional; details: Homo sapiens
Dihydrofolate reductase [6] = molecular target: T2, Dihydrofolate reductase (Pneumocystis carinii, UniProt P16184)
T2 sequence (P16184 whole entry): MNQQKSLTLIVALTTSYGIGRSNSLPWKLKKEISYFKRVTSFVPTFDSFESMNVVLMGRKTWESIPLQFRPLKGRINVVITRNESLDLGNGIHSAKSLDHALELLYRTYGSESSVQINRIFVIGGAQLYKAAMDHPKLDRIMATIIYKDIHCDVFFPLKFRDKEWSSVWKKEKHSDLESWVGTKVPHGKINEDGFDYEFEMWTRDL
Description: Inhibitory activity against dihydrofolate reductase (DHFR) from Pneumocystis carinii

MDA-N [7] = assay: inhibition of the growth of breast cancer(MDA-N) cell line; assay type: functional; details: Homo sapiens
NCI-H322M = assay: inhibition of the growth of non-small-cell lung cancer (NCI-H322M) cell line; assay type: functional; details: Homo sapiens
MDA-MB-435 [8] = assay: Inhibition of the growth of breast cancer (MDA-MB-435) cell line at 0.01 uM; assay type: functional; details: Homo sapiens
HCT-116 [9] = assay: inhibition of the growth of colon cancer(HCT116) cell line; assay type: functional; details: Homo sapiens
SK-MEL-5 [10] = assay: Inhibition of the growth of melanoma cancer (SK-MEL-5) cell line at 0.01 uM; assay type: functional; details: Homo sapiens
RPMI-8226 [11] = assay: inhibition of the growth of leukemia (RPMI-8226) cell line; assay type: functional; details: Homo sapiens
IGROV-1 [12] = assay: inhibition of the growth of ovarian cancer(IGROVI) cell line; assay type: functional; details: Homo sapiens
SF-295 [13] = assay: inhibition of the growth of CNS cancer(SF-295) cell line; assay type: functional; details: Homo sapiens
OVCAR-8 [14] = assay: Inhibition of the growth of ovarian cancer(OVCAR-8) cell line at 0.01 uM; assay type: functional; details: Homo sapiens
A549 [15] = assay: inhibition of the growth of non-small-cell lung cancer (A549/ATCC) cell line; assay type: functional; details: Homo sapiens
IGROV-1 [16] = assay: Inhibition of the growth of ovarian cancer(IGROVI) cell line at 0.01 uM; assay type: functional; details: Homo sapiens
M14 = assay: inhibition of the growth of melanoma cancer (M14) cell line; assay type: functional; details: Homo sapiens
UO-31 [17] = assay: inhibition of the growth of renal cancer(UO-31) cell line at 0.01 uM; assay type: functional; details: Homo sapiens
786-0 = assay: inhibition of the growth of renal cancer(786-0) cell line; assay type: functional; details: Homo sapiens
SF-539 = assay: inhibition of the growth of CNS cancer(SF-539) cell line; assay type: functional; details: Homo sapiens
UO-31 [18] = assay: inhibition of the growth of renal cancer(UO-31) cell line; assay type: functional; details: Homo sapiens
NCI-H460 [19] = assay: inhibition of the growth of non-small-cell lung cancer (NCI-H460) cell line; assay type: functional; details: Homo sapiens
DU-145 = assay: inhibition of the growth of prostate cancer(DU-145) cell line; assay type: functional; details: Homo sapiens
A549 [20] = assay: Inhibition of the growth of non-small-cell lung cancer (A549/ATCC) cell line at 0.01 uM; assay type: functional; details: Homo sapiens
HCT-116 [21] = assay: Inhibition of the growth of colon cancer(HCT116) cell line at 0.01 uM; assay type: functional; details: Homo sapiens
HCT-15 [22] = assay: Inhibition of the growth of colon cancer(HCT-15) cell line at 0.01 uM; assay type: functional; details: Homo sapiens
NCI/ADR-RES = assay: inhibition of the growth of breast cancer (MCF7/ADR-RES) cell line; assay type: functional; details: Homo sapiens
NCI-H522 = assay: inhibition of the growth of non-small-cell lung cancer (NCI-H522) cell line; assay type: functional; details: Homo sapiens
CAKI-1 = assay: inhibition of the growth of renal cancer(CAKI-1) cell line; assay type: functional; details: Homo sapiens
SF-268 [23] = assay: inhibition of the growth of CNS cancer(SF-268) cell line; assay type: functional; details: Homo sapiens
SF-295 [24] = assay: Inhibition of the growth of CNS cancer(SF-295) cell line at 0.01 uM; assay type: functional; details: Homo sapiens
SNB-19 [25] = assay: inhibition of the growth of CNS cancer(SNB-19) cell line; assay type: functional; details: Homo sapiens
MCF7 = assay: inhibition of the growth of breast cancer (MCF-7) cell line; assay type: functional; details: Homo sapiens
SNB-19 [26] = assay: Inhibition of the growth of CNS cancer(SNB-19) cell line at 0.01 uM; assay type: functional; details: Homo sapiens
OVCAR-8 [27] = assay: inhibition of the growth of ovarian cancer(OVCAR-8) cell line; assay type: functional; details: Homo sapiens
Dihydrofolate reductase [28] = molecular target: T3, Dihydrofolate reductase (Rattus norvegicus, UniProt Q920D2)
T3 sequence (Q920D2 whole entry): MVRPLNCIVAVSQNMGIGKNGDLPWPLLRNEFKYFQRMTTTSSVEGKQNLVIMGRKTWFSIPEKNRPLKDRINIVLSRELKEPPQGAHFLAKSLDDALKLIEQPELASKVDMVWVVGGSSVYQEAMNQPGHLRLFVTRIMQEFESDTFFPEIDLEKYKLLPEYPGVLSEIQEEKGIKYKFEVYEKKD
Description: Inhibitory activity against dihydrofolate reductase (DHFR) from rat liver

MDA-N [29] = assay: Inhibition of the growth of breast cancer(MDA-N) cell line at 0.01 uM; assay type: functional; details: Homo sapiens
RPMI-8226 [30] = assay: Inhibition of the growth of leukemia (RPMI-8226) cell line at 0.01 uM; assay type: functional; details: Homo sapiens
NCI-H23 [31] = assay: Inhibition of the growth of non-small-cell lung cancer (NCI-H23) cell line at 0.01 uM; assay type: functional; details: Homo sapiens
MOLT-4 = assay: inhibition of the growth of leukemia (MOLT-4) cell line; assay type: functional; details: Homo sapiens
NCI-H460 [32] = assay: Inhibition of the growth of non-small-cell lung cancer (NCI-H460) cell line at 0.01 uM; assay type: functional; details: Homo sapiens
SR = assay: inhibition of the growth of leukemia(SR) cell line; assay type: functional; details: Homo sapiens
SF-268 [33] = assay: Inhibition of the growth of CNS cancer(SF-268) cell line at 0.01 uM; assay type: functional; details: Homo sapiens

COc1cc(N(C)c2ccc3nc(N)nc(N)c3n2)cc(OC)c1OC
GI50 (HCT-15 [1]): < 10 nM | GI50 (SK-MEL-5 [2]): < 10 nM | GI50 (MDA-MB-435 [3]): < 10 nM | GI50 (NCI-H23 [4]): < 10 nM | IC50 [5]: 7.6 nM | GI50 (KM12): 40 nM | IC50 (Dihydrofolate reductase [6]): 21 nM | GI50 (MDA-N [7]): < 10 nM | GI50 (NCI-H322M): 11000 nM | inhibition at 0.01 µM (MDA-MB-435 [8]): 56% | GI50 (HCT-116 [9]): < 10 nM | inhibition at 0.01 µM (SK-MEL-5 [10]): 60% | GI50 (RPMI-8226 [11]): < 10 nM | GI50 (IGROV-1 [12]): < 10 nM | GI50 (SF-295 [13]): < 10 nM | inhibition at 0.01 µM (OVCAR-8 [14]): 57% | GI50 (A549 [15]): < 10 nM | inhibition at 0.01 µM (IGROV-1 [16]): 52% | GI50 (M14): 20 nM | inhibition at 0.01 µM (UO-31 [17]): 65% | GI50 (786-0): 20 nM | GI50 (SF-539): 20 nM | GI50 (UO-31 [18]): < 10 nM | GI50 (NCI-H460 [19]): < 10 nM | GI50 (DU-145): 220 nM | inhibition at 0.01 µM (A549 [20]): 67% | inhibition at 0.01 µM (HCT-116 [21]): 76% | inhibition at 0.01 µM (HCT-15 [22]): 57% | GI50 (NCI/ADR-RES): 10 nM | GI50 (NCI-H522): 30 nM | GI50 (CAKI-1): 10 nM | GI50 (SF-268 [23]): < 10 nM | inhibition at 0.01 µM (SF-295 [24]): 53% | GI50 (SNB-19 [25]): < 10 nM | GI50 (MCF7): 40 nM | inhibition at 0.01 µM (SNB-19 [26]): 53% | GI50 (OVCAR-8 [27]): < 10 nM | IC50 (Dihydrofolate reductase [28]): 3.7 nM | inhibition at 0.01 µM (MDA-N [29]): 58% | inhibition at 0.01 µM (RPMI-8226 [30]): 56% | inhibition at 0.01 µM (NCI-H23 [31]): 51% | GI50 (MOLT-4): 40 nM | inhibition at 0.01 µM (NCI-H460 [32]): 79% | GI50 (SR): 30 nM | inhibition at 0.01 µM (SF-268 [33]): 61%
